From ChEMBL document CHEMBL1149400, “Tethering identifies fragment that yields potent inhibitors of human caspase-1” (Bioorg Med Chem Lett, 2006)
Residues, ends and D or L forms follow the SMILES beside them. *: point of attachment. Cbz = O=C(OCc1ccccc1)*

Tests used:
PBMC = test: Inhibition of IL1-beta production in PBMC; type: functional, cell-based; details: Homo sapiens
Caspase-1 = target: T1, Caspase-1 (Homo sapiens, UniProt P29466); test: Inhibitory activity against human Caspase 1
T1 sequence (P29466 whole entry): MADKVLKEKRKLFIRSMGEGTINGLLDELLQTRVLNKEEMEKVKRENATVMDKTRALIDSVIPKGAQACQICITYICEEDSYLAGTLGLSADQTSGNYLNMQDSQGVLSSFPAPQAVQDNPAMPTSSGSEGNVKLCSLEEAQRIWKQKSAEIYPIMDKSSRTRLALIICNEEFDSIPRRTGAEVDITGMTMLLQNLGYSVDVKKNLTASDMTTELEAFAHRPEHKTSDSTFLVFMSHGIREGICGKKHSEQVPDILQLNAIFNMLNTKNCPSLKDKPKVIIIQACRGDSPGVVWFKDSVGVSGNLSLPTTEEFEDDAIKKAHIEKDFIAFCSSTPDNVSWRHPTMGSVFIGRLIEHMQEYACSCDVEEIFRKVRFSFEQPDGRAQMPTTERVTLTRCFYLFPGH

Row | Ki (Caspase-1) [nM] | SMILES | EC50 (PBMC) [nM]
1 | 180 | CC(C)[C@H](NC(=O)[C@H](Cc1ccc(O)cc1)NC(=O)OCc1ccccc1)C(=O)N[C@@H](C)C(=O)N[C@H](C=O)CC(=O)O | 3900
2 | 260 | O=C[C@H](CC(=O)O)NC(=O)c1cc(NC(=O)c2ccc(Nc3cnc4ccccc4n3)cc2)cs1 | 
3 | 2400 | O=C[C@H](CC(=O)O)NC(=O)CCCCCNC(=O)c1ccc(Oc2cnc3ccccc3n2)cc1 | 27000
4 | 54 | O=C[C@H](CC(=O)O)NC(=O)C(CCCCNC(=O)c1ccc(Nc2cncc(Cl)n2)cc1)c1cccs1 (some centres not stated) | 
5 | 2100 | O=C[C@H](CC(=O)O)NC(=O)CCCCCC(=O)Nc1ccc(Nc2cnc3ccccc3n2)cc1 | 
6 | 2800 | O=C[C@H](CC(=O)O)NC(=O)CCCCNC(=O)c1ccc(Nc2cnc3ccccc3n2)cc1 | 
7 | 100 | O=C[C@H](CC(=O)O)NC(=O)c1ccc(CNC(=O)c2ccc(Nc3cnc4ccccc4n3)cc2)cc1 | 
8 | 4 | Cc1cc(C(=O)NCCCCC(C(=O)N[C@H](C=O)CC(=O)O)c2cccs2)ccc1Nc1cnc2ccccc2n1 (some centres not stated) | 7700
9 | 5200 | O=C[C@H](CC(=O)O)NC(=O)CCCNC(=O)c1ccc(Nc2cnc3ccccc3n2)cc1 | 
10 |  | O=C[C@H](CC(=O)O)NC(=O)C(CCCCNC(=O)c1ccc(Oc2cnc3ccccc3n2)cc1)c1cccs1 (some centres not stated) | 12400
11 | 7 | O=C[C@H](CC(=O)O)NC(=O)C(CCCCNC(=O)c1ccc(Nc2cnc3ccccc3n2)cc1)c1cccs1 (some centres not stated) | 20500
12 | 8 | O=C[C@H](CC(=O)O)NC(=O)C(CCCCNC(=O)c1ccc(Nc2cnc3ccccc3n2)cc1)c1ccccc1F (some centres not stated) | 
13 | 4 | CC(C)[C@H](NC(=O)c1ccc(Nc2cnc3ccccc3n2)cc1)C(=O)N[C@@H](C)C(=O)N[C@H](C=O)CC(=O)O | 
14 | 35 | O=C[C@H](CC(=O)O)NC(=O)c1ccc(CNC(=O)c2ccc(Nc3cnc4ccccc4n3)cc2)s1 | 
15 | 5 | O=C[C@H](CC(=O)O)NC(=O)c1ccc(CNC(=O)c2ccc(Nc3cnc4ccccc4n3)cc2)nc1 | 
16 | 120 | O=C[C@H](CC(=O)O)NC(=O)Cc1ccc(CNC(=O)c2ccc(Nc3cnc4ccccc4n3)cc2)s1 | 
17 | 1000 | O=C[C@H](CC(=O)O)NC(=O)c1cnc(CNC(=O)c2ccc(Nc3cnc4ccccc4n3)cc2)cn1 | 
18 | 320 | Cc1cc(C(=O)NCCCCCC(=O)N[C@H](C=O)CC(=O)O)ccc1Nc1cnc2ccccc2n1 | 7700
19 | 16 | CCC(CCCCNC(=O)c1ccc(Nc2cnc3ccccc3n2)cc1)C(=O)N[C@H](C=O)CC(=O)O (some centres not stated) | 
20 | 2600 | O=C[C@H](CC(=O)O)NC(=O)CCCCCCNC(=O)c1ccc(Nc2cnc3ccccc3n2)cc1 | 
21 | 1950 | O=C[C@H](CC(=O)O)NC(=O)[C@H]1CC[C@H](CNC(=O)c2ccc(Nc3cnc4ccccc4n3)cc2)CC1 | 
22 | 120 | O=C[C@H](CC(=O)O)NC(=O)c1csc(CNC(=O)c2ccc(Nc3cnc4ccccc4n3)cc2)c1 | 
23 | 5 | Cc1ccc2nc(Nc3ccc(C(=O)NCCCCC(C(=O)N[C@H](C=O)CC(=O)O)c4cccs4)cc3)cnc2c1 (some centres not stated) | 
24 | 190 | O=C[C@H](CC(=O)O)NC(=O)CCCCCNC(=O)c1ccc(Nc2cnc3ccccc3n2)cc1 | 4200
25 | 2100 | O=C[C@H](CC(=O)O)NC(=O)c1ccc(CNC(=O)c2ccc(Nc3cnc4ccccc4n3)cc2)o1 | 
26 | 37000 | O=C[C@H](CC(=O)O)NC(=O)CCCCCNC(=O)c1ccc(Nc2cnccn2)cc1 | > 200000
27 | 100 | O=C[C@H](CC(=O)O)NC(=O)C(CCCCNC(=O)c1ccc(Nc2cnccn2)cc1)c1cccs1 (some centres not stated) | 20000
28 | 5 | O=C[C@H](CC(=O)O)NC(=O)C(CCCCNC(=O)c1ccc(Nc2cnc3ccccc3n2)cc1)c1ccccc1 (some centres not stated) | 
29 | 8 | CC(C)[C@H](NC(=O)OCc1ccccc1)C(=O)N[C@@H](C)C(=O)N[C@H](C=O)CC(=O)O (Cbz-Val-Ala-Asp-aldehyde) | 
